Measurements: publication PMC6264177, “Synthesis and Characterization of (Z)-5-Arylmethylidene-rhodanines with Photosynthesis-Inhibiting Properties ^†” (Molecules, 2011)
Several values for one entry are separate records, joined by “and”; a condition that tells them apart may be missing. Equal entries are not always repeated. Where two headings read alike, the source gives them in different places.

Legend:
[1] = Lipophilicity HPLC determination (capacity factor k / log k); assay type: physicochemical; settings: RP-HPLC, C18 column, isocratic, MeOH 70% / H2O 30%
Experimental: The procedure was performed under isocratic conditions with methanol as an organic modifier in the mobile phase using an end-capped non-polar C18 stationary RP column. […] The HPLC separation process was monitored by Empower™ 2 Chromatography Data Software, Waters 2009 (Waters Corp., Milford, MA, USA). […] The detection wavelength of 210 nm was chosen. The KI methanolic solution was used for the dead time (tD) determination. Retention times (tR) were measured in minutes. […] Log k, calculated from the capacity factor k, is used as the lipophilicity index converted to log P scale.

[2] = test system: photosynthetic electron transport (PET) in spinach chloroplasts; experiment: Inhibition of photosynthetic electron transport (PET) in spinach chloroplasts, DCPIP photoreduction; assay type: biochemical, Spinacia oleracea L.; settings: DCPIP as electron acceptor, pH 7.2
Experimental: Chloroplasts were prepared from spinach (Spinacia oleracea L.) according to ref. [54]. The inhibition of photosynthetic electron transport (PET) in spinach chloroplasts was determined spectrophotometrically (Genesys 6, Thermo Scientific, USA) using an artificial electron acceptor 2,6-dichlorophenol-indophenol (DCIPP) according to ref. [55], and the rate of photosynthetic electron transport was monitored as a photoreduction of DCPIP. The measurements were carried out in phosphate buffer (0.02 mol/L, pH 7.2) containing sucrose (0.4 mol/L), MgCl2 (0.005 mol/L) and NaCl (0.015 mol/L). The chlorophyll content was 30 mg/L in these experiments, and the samples were irradiated (~100 W/m^2) from 10 cm distance with a halogen lamp (250 W) using a 4 cm water filter to prevent warming of the samples (suspension temperature 22 °C). The studied compounds were dissolved in DMSO due to their limited water solubility.

[3] = test system: immature cells of Marchantia polymorpha; design: method as in doi:10.1584/jpestics.22.1; settings: 1 mmol/L, within 90 hours; ref [14]; cited from earlier work
seeds of Sesamum indicum = test system: seeds of Sesamum indicum; design: method as in doi:10.1271/bbb.60.1368; settings: 1 mmol/L; ref [13]; cited from earlier work
[4] = test system: cotyledons of Brassica rapa L.; settings: 0.3 mmol/L; ref [11]; cited from earlier work
[5] = test system: seeds of Daucus carota L. var. sativa DC; design: method as in doi:10.1271/bbb.60.1368; settings: 1 mmol/L; ref [13]; cited from earlier work
[6] = test system: photosynthetic electron transport; design: method as in doi:10.1584/jpestics.22.1; settings: ref [14], read-out: IC50 of PET inhibition, cited from earlier work
[7] = test system: Daucus carota L. var. sativa DC; design: method as in doi:10.1271/bbb.60.1368; settings: 0.3 mmol/L; ref [13]; cited from earlier work
Chlorella vulgaris = experiment: Reduction of chlorophyll content in green algae Chlorella vulgaris; assay type: cell-based, Chlorella vulgaris Beij.; settings: 168 h; for inhibition at 100 µM: 100 μmol/L of the compound, 7-day cultivation, read-out: Chlorella vulgaris reduction of Chl. cont.; for IC50: read-out: Chlorella vulgaris IC50 (50% reduction of chlorophyll content), 7-day cultivation
Experimental: (photoperiod 16 h light/8 h dark; photosynthetically active radiation (PAR) 80 μmol/m^2s; pH 7.2). The effect of rhodanine compounds on algal chlorophyll (Chl) content was determined after 7-day cultivation in the presence of the compounds tested, expressing the response as percentage of the corresponding values obtained for control. The Chl content in the algal suspension was determined spectrophotometrically (Genesys 6, Thermo Scientific, USA) after extraction into methanol according to Wellburn [58].

[8] = test system: photosynthetic electron transport (PET) in spinach chloroplasts; design: method as in earlier work; settings: standard DCMU; ref [56]; cited from earlier work

SMILES | log k [1] | IC50 [2] [µM] | inhibition at 100 µM (Chlorella vulgaris) [%] | other results
COc1cccc(/C=C2\SC(=S)NC2=O)c1 [Compound 4b, (5Z)-5-(3-Methoxybenzylidene)-2-thioxo-1,3-thiazolidin-4-one] | 0.5713 | 221 |  | 
O=C1NC(=S)S/C1=C\c1ccccc1F [Compound 8a, (5Z)-5-(2-Fluorobenzylidene)-2-thioxo-1,3-thiazolidin-4-one] | 0.8108 | 99.5 |  | 
O=C1NC(=S)S/C1=C\c1ccccc1[N+](=O)[O-] [Compound 7a, (5Z)-5-(2-Nitrobenzylidene)-2-thioxo-1,3-thiazolidin-4-one] | 0.2254 | 428 |  | 
O=C1NC(=S)S/C1=C\c1ccc(Br)cc1 [Compound 10c, (5Z)-5-(4-Bromobenzylidene)-2-thioxo-1,3-thiazolidin-4-one] | 0.6940 | 3 |  | 
O=C1NC(=S)S/C1=C\c1ccco1 [Compound 16, (5Z)-5-(Furan-2-ylmethylidene)-2-thioxo-1,3-thiazolidin-4-one] | 0.4656 |  |  | 
O=C1CSC(=S)N1 [rhodanine] |  |  |  | inhibition of growth of immature cells [3]: completely inhibited; inhibition of germination of seeds of Sesamum indicum (seeds of Sesamum indicum): inhibited; inhibition of chlorophyll synthesis in cotyledons [4]: strongly inhibited; inhibition of germination of seeds of Daucus carota [5]: inhibited; IC50 ([6]; assay done after illumination for 3 min): 100 µM; IC50 ([6]; normal 1 min assay): ~1000 µM; inhibition of growth of Daucus carota [7]: strongly inhibited
O=C1NC(=S)S/C1=C\c1cnccn1 [Compound 15, (5Z)-5-(Pyrazin-2-ylmethylidene)-2-thioxo-1,3-thiazolidin-4-one] | 0.2359 | 216 | 1.8 | 
O=C1NC(=S)S/C1=C\c1ccccc1Cl [Compound 9a, (5Z)-5-(2-Chlorobenzylidene)-2-thioxo-1,3-thiazolidin-4-one] | 0.9019 | 53.3 |  | 
O=C1NC(=S)S/C1=C\c1ccccc1O [Compound 2a, (5Z)-5-(2-Hydroxybenzylidene)-2-thioxo-1,3-thiazolidin-4-one] | 0.4664 | 369 | 59 | IC50 (Chlorella vulgaris): 59.4 µM
O=C1/C(=C/c2ccccc2[N+](=O)[O-])SC(=S)N1CCO [Compound 11a, (5Z)-3-(2-Hydroxyethyl)-5-(2-nitrobenzylidene)-2-thioxo-1,3-thiazolidin-4-one] | 0.4751 | 127 |  | 
O=C1NC(=S)S/C1=C\c1ccccn1 [Compound 12, (5Z)-5-(Pyridin-2-ylmethylidene)-2-thioxo-1,3-thiazolidin-4-one] | 0.4864 |  |  | 
O=C1NC(=S)S/C1=C\c1cccc(O)c1 [Compound 2b, (5Z)-5-(3-Hydroxybenzylidene)-2-thioxo-1,3-thiazolidin-4-one] | 0.2744 | 444 | 9.6 | 
O=C1/C(=C/c2cccc([N+](=O)[O-])c2)SC(=S)N1CCO [Compound 11b, (5Z)-3-(2-Hydroxyethyl)-5-(3-nitrobenzylidene)-2-thioxo-1,3-thiazolidin-4-one] | 0.6077 |  |  | 
O=C1NC(=S)S/C1=C\c1cccc([N+](=O)[O-])c1 [Compound 7b, (5Z)-5-(3-Nitrobenzylidene)-2-thioxo-1,3-thiazolidin-4-one] | 0.2399 | 16.9 | 85.7 | IC50 (Chlorella vulgaris): 4.4 µM
COc1cc(/C=C2\SC(=S)NC2=O)ccc1O [Compound 5, (5Z)-5-(4-Hydroxy-3-methoxybenzylidene)-2-thioxo-1,3-thiazolidin-4-one] | 0.3553 |  | 19.4 | 
O=C1NC(=S)S/C1=C\c1cccc(Cl)c1 [Compound 9b, (5Z)-5-(3-Chlorobenzylidene)-2-thioxo-1,3-thiazolidin-4-one] | 1.0270 | 17 |  | 

SMILES | log k [1] | IC50 [2] [µM] | inhibition at 100 µM (Chlorella vulgaris) [%] | other results
O=C1NC(=S)S/C1=C\c1ccc(Cl)cc1 [Compound 9c, (5Z)-5-(4-Chlorobenzylidene)-2-thioxo-1,3-thiazolidin-4-one] | 0.5936 | 6 | 84.8 | IC50 (Chlorella vulgaris): 1.3 µM
O=C(O)CN1C(=O)CSC1=S [rhodanine-N-acetic acid] |  |  |  | inhibition of germination of seeds of Sesamum indicum (seeds of Sesamum indicum): inhibited; inhibition of germination of seeds of Daucus carota [5]: inhibited; inhibition of growth of Daucus carota [7]: strongly inhibited
COc1ccc(/C=C2\SC(=S)NC2=O)cc1 [Compound 4c, (5Z)-5-(4-Methoxybenzylidene)-2-thioxo-1,3-thiazolidin-4-one] | 0.5425 | 174 |  | 
COc1ccccc1/C=C1\SC(=S)NC1=O [Compound 4a, (5Z)-5-(2-Methoxybenzylidene)-2-thioxo-1,3-thiazolidin-4-one] | 0.5867 |  |  | 
O=C1NC(=S)S/C1=C\c1ccc(O)cc1 [Compound 2c, (5Z)-5-(4-Hydroxybenzylidene)-2-thioxo-1,3-thiazolidin-4-one] | 0.2641 |  | 29.8 | 
CN(C)C(=O)Nc1ccc(Cl)c(Cl)c1 [DCMU, 3-(3,4-dichlorophenyl)-1,1-dimethylurea] |  |  |  | IC50 (Chlorella vulgaris): ~7.3 µM; IC50 [8]: ~1.9 µM and 1.9 µM
O=C1NC(=S)S/C1=C\c1cccc(Br)c1 [Compound 10b, (5Z)-5-(3-Bromobenzylidene)-2-thioxo-1,3-thiazolidin-4-one] | 1.0820 | 5.2 |  | 
O=C1NC(=S)S/C1=C\c1ccccc1Br [Compound 10a, (5Z)-5-(2-Bromobenzylidene)-2-thioxo-1,3-thiazolidin-4-one] | 0.9368 | 18.1 |  | 
O=C1NC(=S)S/C1=C\c1ccc(O)cc1O [Compound 3, (5Z)-5-(2,4-Hydroxybenzylidene)-2-thioxo-1,3-thiazolidin-4-one] | 0.2776 |  | 48.5 | IC50 (Chlorella vulgaris): 108 µM
CN(C)c1ccc(/C=C2\SC(=S)NC2=O)cc1 [Compound 6, (5Z)-5-[(4-Dimethylamino)benzylidene]-2-thioxo-1,3-thiazolidin-4-one] | 0.6466 |  | 12.6 | 
O=C1NC(=S)S/C1=C\c1ccncc1 [Compound 14, (5Z)-5-(Pyridin-4-ylmethylidene)-2-thioxo-1,3-thiazolidin-4-one] | 0.1878 |  |  | 
O=C1/C(=C/c2ccc([N+](=O)[O-])cc2)SC(=S)N1CCO [Compound 11c, (5Z)-3-(2-Hydroxyethyl)-5-(4-nitrobenzylidene)-2-thioxo-1,3-thiazolidin-4-one] | 0.6349 |  |  | 
O=C1NC(=S)S/C1=C\c1cccc(F)c1 [Compound 8b, (5Z)-5-(3-Fluorobenzylidene)-2-thioxo-1,3-thiazolidin-4-one] | 0.8204 | 23.8 |  | 
O=C1NC(=S)S/C1=C\c1cccnc1 [Compound 13, (5Z)-5-(Pyridin-3-ylmethylidene)-2-thioxo-1,3-thiazolidin-4-one] | 0.4539 |  |  | 
O=C1NC(=S)S/C1=C\c1ccc(F)cc1 [Compound 8c, (5Z)-5-(4-Fluorobenzylidene)-2-thioxo-1,3-thiazolidin-4-one] | 0.7909 | 63.5 |  | 
O=C1NC(=S)S/C1=C\c1ccc([N+](=O)[O-])cc1 [Compound 7c, (5Z)-5-(4-Nitrobenzylidene)-2-thioxo-1,3-thiazolidin-4-one] | 0.2436 | 20.1 | 87.1 | IC50 (Chlorella vulgaris): 21.9 µM
